In US12378203B2, “Imidazole compounds, process for the synthesis and uses thereof” (AHAMMUNE BIOSCIENCES PRIVATE LIMITED, priority 2018, dated 2025):

What was measured:
Assay type in all cases: cell-based
[1] = system: mouse B16F10 cells; test: Protection of melanocytes from tunicamycin (ER stress) induced cell death, MTT assay, B16F10; conditions: for EC50: Mus musculus, B16-F10, different concentrations of compound along with tunicamycin, GraphPad Prism 7; for % Recovery: compound at 25-30 μM, 6 h pretreatment, tunicamycin 300 ng/ml, total 72 h, cell growth over tunicamycin treatment
Method: (§1) Compounds synthesized under present invention were tested for their in vitro potency. The potency was tested as their ability to protect melanocytes from ER stress induced cell death. ER stress was caused by the treatment of tunicamycin. The results obtained are summarized in Table-I, Table-II and Table-III for mouse B16F10 cells, human A375 cells and human primary melanocytes respectively. Table-IV and Table-V describes the potency of the compounds in effective concentration 50 (EC50) which means the dose of compound needed to get the 50% of maximum effect.
(§2) For the estimation of potency, mouse B16F10, human A375 or human primary melanocytes (NHEM) cells were pretreated in quadruplicates with these compounds for 6 hours. After 6 hours of incubation, tunicamycin was added at either 300 ng/ml for B16F10 cells or at 100 ng/ml for A375 cells or at 200 ng/ml for NHEM to induce stress mediated cell death and cultured further for a total of 72 hours. The vehicle (DMSO) concentration was kept constant for each well. After 72 hours of treatment, MTT assay was performed to measure the cell growth and vehicle control was kept at 100%. Effect of the treatment of compounds was calculated as cell growth over tunicamycin treatment. For the estimation of Effective Concentration 50 (EC50), cells were treated with different concentration of compounds along with tunicamycin and MTT assay was performed. The EC50 values were calculated by GraphPad Prism 7 software.

[2] = system: human A375 cells; test: Protection of melanocytes from tunicamycin (ER stress) induced cell death, MTT assay, A375; conditions: for EC50: Homo sapiens, A-375, different concentrations of compound along with tunicamycin, GraphPad Prism 7; for % Recovery: compound at 25-30 μM, 6 h pretreatment, tunicamycin 100 ng/ml, total 72 h, cell growth over tunicamycin treatment
Method: as §1, §2

[3] = system: human primary melanocytes (NHEM: Normal Human Epidermal Melanocytes); test: Protection of melanocytes from tunicamycin (ER stress) induced cell death, MTT assay, NHEM; conditions: compound at 25-30 μM, 6 h pretreatment, tunicamycin 200 ng/ml, total 72 h, cell growth over tunicamycin treatment
Method: as §1, §2

Compound | EC50 [1] [µM] | % Recovery [1] [%] | EC50 [2] [µM] | % Recovery [2] [%] | % Recovery [3] [%]
O=C(NCCc1c[nH]c(-c2ccc(Cl)cc2)n1)c1ccc(C(F)(F)F)cc1 [Compound 053, N-(2-(2-(4-chlorophenyl)-1H-imidazol-4-yl)ethyl)-4-(trifluoromethyl)benzamide] | 18.1 | 24 | 2.9 | 65 | 37
CCCC(=O)NCCc1c[nH]c(-c2ccc(Cl)cc2)n1 [Compound 002, N-(2-(2-(4-chlorophenyl)-1H-imidazol-4-yl)ethyl)butyramide] | 2.71 | 58 | 20.6 | 22 | 17
O=C(NCCc1c[nH]c(-c2ccc(Cl)cc2)n1)c1cc(F)cc(F)c1 [Compound 054, N-(2-(2-(4-chlorophenyl)-1H-imidazol-4-yl)ethyl)-3,5-difluorobenzamide] |  | 33 | 2.9 | 58 | 46
CC(C)(C)CC(=O)NCCc1c[nH]c(-c2ccc(Cl)cc2)n1 [Compound 025, N-(2-(2-(4-chlorophenyl)-1H-imidazol-4-yl)ethyl)-3,3-dimethylbutanamide] | 3.3 | 55 | 14.2 | 57 | 41
